Where two headings read alike, the source gives them in different places.
How the values were obtained:
in vitro [1] = experiment: in vitro; parameters: MTT viability assay, undifferentiated SH-SY5Y cells; conditions: human, undifferentiated sh-sy5y cells, read-out: SH-SY5Y IC50
Description: (§1) The cytotoxic profile of 5–7 was carried through the use of the MTT (3-(4,5-dimethylthiazol-2-yl)-2,5-diphenyltetrazolium bromide) assay on human neuroblastoma (SH-SY5Y) and hepatocellular carcinoma (HepG2) cell lines, following established protocols. The cytotoxicity was assessed on SH-SY5Y cells in undifferentiated and in differentiated form. The data obtained from the measurements on the undifferentiated SH-SY5Y and HepG2 cells are summarized in Table 1 for 5c-d, 7c and 7g, as well as for the reference compounds amiridine hydrochloride and THA. Additional data can be found in Supplementary Information (Table S2 and Fig. S1). The both cell lines were cultured according to ECACC recommended conditions and seeded into 96-well plates in 100 µL and density of 8000 per well. For evaluation of cytotoxicity of the differentiated form the SH-SY5Y cells also underwent 9-day differentiation protocol into mature neurons according to Riegerová et al .. The tested compounds were dissolved in DMSO (Sigma Aldrich) or in phosphate buffer saline (PBS, Sigma Aldrich) and subsequently in the growth medium - high glucose Dulbecco’s Modified Eagle’s medium (DMEM; Sigma-Aldrich, D6429). […] Then, the differentiated SH-SY5Y cells were treated with concentrations corresponding to IC50 values obtained from the cytotoxicity measurement using undifferentiated SH-SY5Y cells. Cells were exposed to a tested compound for 24 h. Then the medium was replaced by a medium containing 10 μM of MTT and cells were allowed to produce formazan for another approximately 3 h under surveillance. Thereafter, medium was aspirated and purple crystals of MTT formazan were dissolved in 100 μL DMSO under shaking. Cell viability was assessed spectrophotometrically by the amount of formazan produced. Absorbance was measured at 570 nm with 650 nm reference wavelength on Spark (Tecan Group Ltd, Switzerland). The IC50 value was then calculated from the control-subtracted triplicates using non-linear regression (four parameters) of GraphPad Prism 9 software. Final IC50 and SEM values were obtained as a mean of three independent measurements.

[2] = molecular target: T1, hBChE (human serum / plasmatic butyrylcholinesterase) (Homo sapiens, UniProt P06276); experiment: biochemical; parameters: modified Ellman assay, cholinesterase activity, absorbance at 412 nm
T1 construct: gene BCHE; native enzyme from human plasma/serum, purchased from Sigma-Aldrich
Description: (§2) The inhibitory activities of 5–7 and all the reference compounds were determined using modified Ellman’s method against human recombinant AChE (hAChE, E.C. 3.1.1.7, purchased from Sigma-Aldrich, Prague, Czech Republic) and human plasmatic BChE (hBChE, E.C. 3.1.1.8, purchased from Sigma-Aldrich, Prague, Czech Republic). The results are expressed as IC50 (the concentration of the compound that is required to reduce 50% of cholinesterase activity). Other used compounds – phosphate buffer solution (PBS, pH = 7.4), 5,5’-dithio-bis(2-nitrobenzoic) acid (Ellman’s reagent, DTNB), acetylthiocholine (ATCh) and butyrylthiocholine (BTCh) were also commercially available and were purchased from Sigma-Aldrich (Prague, Czech Republic). During the measurement, 96-well microplates from polystyrene (ThermoFisher Scientific, Waltham, MA, USA) were used. The solutions of corresponding enzyme in PBS were prepared up to final activity 0.002 U/µL. The assay medium (100 µL) consisted of cholinesterase (10 µL), DTNB (20 µL of 0.01 M solution) and PBS (40 µL of 0.1 M solution). The solutions of the tested compounds (10 µL of different concentrations) were pre- incubated for 5 minutes in the assay medium and then solution of substrate (20 µL of 0.01 M ATCh or BTCh iodide solution) was added to initiate the reaction. The increase of absorbance was measured at 412 nm using Multimode microplate reader Synergy 2 (BioTek Inc., Winooski, VT, USA). For the calculation of the resulting measured activity (the percentage of inhibition I) following formula was used: [drawing 1] where ΔAi indicates absorbance change provided by adequate enzyme exposed to corresponding inhibitor and ΔA0 indicates absorbance change when a solution of PBS was added instead of a solution of inhibitor. Software Microsoft Excel (Redmont, WA, USA) and GraphPad Prism version 5.02 for Windows (GraphPad Software, San Diego, CA, USA) were used for the statistical data evaluation. ChEs are enzymes responsible for the hydrolysis and metabolism of various endogenous and exogenous substrates, that are broadly studied in association with disease conditions like myasthenia gravis or AD. The primary attention in the development of AD drugs has been paid to AChE inhibitors. Nevertheless, there is growing interest in nonselective or BChE-selective inhibitors due to the compensatory role of BChE when AChE levels are depleted during the progression of AD [23]. Selective BChE inhibitors may be beneficial for patients in moderate-to-severe stages of AD [23, 24]. […] Accordingly, we assessed the inhibition activities of these novel compounds against human recombinant AChE (hAChE) and human serum BChE (hBChE) following a modified spectrophotometric protocol developed by Ellman et al.. […] Complete data are available in the Supplementary Information (Table S1), including the inhibition percentages for all derivatives. Amiridine hydrochloride (amiridine.HCl) and tacrine (THA) were used as reference compounds. […] Only a superficial structure-activity relationship for AChE inhibition can be drawn from the obtained data. […] The presence of any substituent on the benzothiazole core enhanced anti-AChE activity, with the best-tolerated position for the substituent being 6 for derivatives with halogen atoms (7b-d with bromine or 7g-h with [compound left out]. h

[3] = molecular target: T2, hAChE (human recombinant acetylcholinesterase) (Homo sapiens, UniProt P22303); experiment: biochemical; parameters: modified Ellman assay, cholinesterase activity, absorbance at 412 nm
T2 construct: gene ACHE; recombinant enzyme, purchased from Sigma-Aldrich
Description: as §2

in vitro [4] = experiment: in vitro; parameters: MTT viability assay, HepG2 cells; conditions: human, hepg2 cells; read-out: HepG2 IC50
Description: as §1

[5] = molecular target: T1, hBChE (human serum / plasmatic butyrylcholinesterase); experiment: modified Ellman assay, […] nm; format: biochemical
in vitro [6] = experiment: in vitro; parameters: PAMPA blood-brain barrier permeability, effective permeability Pe; conditions: PAMPA-BBB Pe
Description: page 5 / Table S2. Cytotoxicity profiles of 5–7 on SH-SY5Y cell line and predictions to BBB penetration by PAMPA results. / Pe (10^-6 cm.s^-1)

in vitro [7] = experiment: in vitro; parameters: PAMPA blood-brain barrier permeability, effective permeability Pe; conditions: PAMPA-BBB Pe; remark: listed apart in the source
Description: page 4 / Table S1. Inhibition activities of 5–7 and reference compounds (amiridine hydrochloride and THA). hAChE ± SEM^a hBChE ± SEM^a / Pe (10^-6 cm.s^-1)

T1 sequence (P06276 29-602): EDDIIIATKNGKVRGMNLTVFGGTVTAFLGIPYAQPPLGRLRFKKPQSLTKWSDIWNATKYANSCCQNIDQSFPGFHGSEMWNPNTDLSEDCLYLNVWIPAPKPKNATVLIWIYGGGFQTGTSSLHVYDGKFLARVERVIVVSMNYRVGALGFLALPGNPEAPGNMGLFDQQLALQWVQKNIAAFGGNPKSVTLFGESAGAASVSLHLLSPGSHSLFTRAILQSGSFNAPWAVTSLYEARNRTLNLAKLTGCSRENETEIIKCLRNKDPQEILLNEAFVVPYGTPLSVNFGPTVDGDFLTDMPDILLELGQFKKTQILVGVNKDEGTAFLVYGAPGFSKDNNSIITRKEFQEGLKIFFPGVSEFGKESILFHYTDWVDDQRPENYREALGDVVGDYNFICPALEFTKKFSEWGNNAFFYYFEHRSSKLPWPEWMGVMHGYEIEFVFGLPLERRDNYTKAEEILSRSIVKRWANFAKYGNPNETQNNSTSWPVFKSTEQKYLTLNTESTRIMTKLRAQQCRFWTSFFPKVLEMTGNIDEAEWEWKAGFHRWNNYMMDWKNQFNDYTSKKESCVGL
T2 sequence (P22303 32-614): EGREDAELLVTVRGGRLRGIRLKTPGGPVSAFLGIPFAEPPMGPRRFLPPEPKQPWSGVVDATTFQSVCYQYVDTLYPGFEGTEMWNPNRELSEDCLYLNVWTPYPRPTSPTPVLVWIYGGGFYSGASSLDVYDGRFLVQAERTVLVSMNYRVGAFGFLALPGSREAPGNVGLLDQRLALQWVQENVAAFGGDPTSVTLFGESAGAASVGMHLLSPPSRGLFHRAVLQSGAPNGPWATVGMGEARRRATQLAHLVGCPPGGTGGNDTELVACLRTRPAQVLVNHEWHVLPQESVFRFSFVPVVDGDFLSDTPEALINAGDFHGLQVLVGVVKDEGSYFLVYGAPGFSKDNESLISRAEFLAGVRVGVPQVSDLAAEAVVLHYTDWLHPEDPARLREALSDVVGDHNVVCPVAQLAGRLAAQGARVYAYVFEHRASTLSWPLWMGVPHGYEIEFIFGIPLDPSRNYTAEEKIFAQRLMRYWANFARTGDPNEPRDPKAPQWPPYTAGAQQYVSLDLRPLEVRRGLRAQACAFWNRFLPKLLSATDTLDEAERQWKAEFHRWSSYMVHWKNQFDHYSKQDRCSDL

SMILES	CC50 at 24 h (in vitro [1]) [µM]	inhibition at 1 µM [2] [%]	inhibition at 1 µM [3] [%]	CC50 at 24 h (in vitro [4]) [µM]	IC50 [5] [µM]	Papp (in vitro [6]) [×10⁻⁶ cm/s]	Papp (in vitro [7]) [×10⁻⁶ cm/s]
O=C(CNc1nc2cc(Br)ccc2s1)Nc1c2c(nc3c1CCC3)CCCC2 [7c, 2-[(5-bromo-1,3-benzothiazol-2-yl)amino]-N-{1H,2H,3H,5H,6H,7H,8H-cyclopenta[b]quinolin-9-yl}acetamide]	17.7 ± 2.34	25 ± 2.39	15.7 ± 1.17	21.61 ± 0.21	4.9 ± 0.4	2.13 ± 1.04	–
CSc1ccc2nc(NCC(=O)Nc3c4c(nc5c3CCC5)CCCC4)sc2c1 [7l, N-{1H,2H,3H,5H,6H,7H,8H-cyclopenta[b]quinolin-9-yl}-2-{[6-(methylsulfanyl)-1,3-benzothiazol-2-yl]amino}acetamide]	173 ± 17.6	6.05 ± 1.77	7.56 ± 0.38	≥ 200	–	2.65 ± 0.01	–
Clc1nc2ccccc2s1 [7a, 2-chlorobenzothiazole]	72.3 ± 6.89	7.19 ± 0.91	1.46 ± 0.17	≥ 200	–	20.6 ± 0.44	–
O=C(CNc1nc2ccc(Br)cc2s1)Nc1c2c(nc3c1CCC3)CCCC2 [7b, 2-[(6-bromo-1,3-benzothiazol-2-yl)amino]-N-{1H,2H,3H,5H,6H,7H,8H-cyclopenta[b]quinolin-9-yl}acetamide]	≥ 200	10.83 ± 0.09	18.5 ± 0.37	≥ 200	–	3.74 ± 0.36	–
O=C(CNc1nc2ccc([N+](=O)[O-])cc2s1)Nc1c2c(nc3c1CCC3)CCCC2 [7i, N-{1H,2H,3H,5H,6H,7H,8H-cyclopenta[b]quinolin-9-yl}-2-[(6-nitro-1,3-benzothiazol-2-yl)amino]acetamide]	91.3 ± 11	0.93 ± 0.08	7.98 ± 0.99	≥ 200	–	4.89 ± 1.5	–
O=C(CNc1nc2cccc([N+](=O)[O-])c2s1)Nc1c2c(nc3c1CCC3)CCCC2 [7k, N-{1H,2H,3H,5H,6H,7H,8H-cyclopenta[b]quinolin-9-yl}-2-[(7-nitro-1,3-benzothiazol-2-yl)amino]acetamide]	51 ± 8.56	4.47 ± 0.58	9.62 ± 0.41	≥ 200	–	1.12 ± 0.62	–
Cc1c(C)c2c(c(C)c1O)CCC(C)(C(=O)NCC(=O)Nc1c3c(nc4c1CCC4)CCCC3)O2 (stereo not drawn) [compound 6, N-{1H,2H,3H,5H,6H,7H,8H-cyclopenta[b]quinolin-9-yl}-2-[(6-hydroxy-2,5,7,8-tetramethyl-3,4-dihydro-2H-1-benzopyran-2-yl)formamido]acetamide]	≥ 200	21.5 ± 0.94	3.95 ± 0.25	–	–	15.9 ± 0.38	–
O=C(CNC12CC3CC(CC(C3)C1)C2)Nc1c2c(nc3c1CCC3)CCCC2 [5a]	74 ± 2.8	14 ± 1.75	2.83 ± 0.49	67.9 ± 1.12	–	–	23.4 ± 1.86
O=C(CNc1nc2cc([N+](=O)[O-])ccc2s1)Nc1c2c(nc3c1CCC3)CCCC2 [7j, N-{1H,2H,3H,5H,6H,7H,8H-cyclopenta[b]quinolin-9-yl}-2-[(5-nitro-1,3-benzothiazol-2-yl)amino]acetamide]	93.7 ± 5.38	8.03 ± 1.37	8.2 ± 0.41	25.83 ± 0.25	–	1.83 ± 0.54	–
CC12CC3CC(C)(C1)CC(NCC(=O)Nc1c4c(nc5c1CCC5)CCCC4)(C3)C2 [5b]	31 ± 2.76	18.6 ± 0.65	9.13 ± 0.48	19.5 ± 1.72	–	7.63 ± 0.09	–
N#Cc1ccc2sc(NCC(=O)Nc3c4c(nc5c3CCC5)CCCC4)nc2c1 [7e, 2-[(5-cyano-1,3-benzothiazol-2-yl)amino]-N-{1H,2H,3H,5H,6H,7H,8H-cyclopenta[b]quinolin-9-yl}acetamide]	77.4 ± 4.54	13.9 ± 0.6	13.3 ± 0.57	26.4 ± 1.82	–	13.9 ± 1.26	–
O=C(CNc1nc2cc(Cl)ccc2s1)Nc1c2c(nc3c1CCC3)CCCC2 [7g, 2-[(5-chloro-1,3-benzothiazol-2-yl)amino]-N-{1H,2H,3H,5H,6H,7H,8H-cyclopenta[b]quinolin-9-yl}acetamide]	98.2 ± 5.74	26.5 ± 1.45	11.9 ± 0.74	≥ 200	11 ± 1.2	2.8 ± 0.79	–
O=C(CNc1nc2c(Br)cccc2s1)Nc1c2c(nc3c1CCC3)CCCC2 [7d, 2-[(4-bromo-1,3-benzothiazol-2-yl)amino]-N-{1H,2H,3H,5H,6H,7H,8H-cyclopenta[b]quinolin-9-yl}acetamide]	111 ± 5.6	6.73 ± 0.45	1.8 ± 0.33	14.5 ± 1.84	–	2.62	–

Source: paper doi:10.1101/2024.02.15.580468v1, “Morphing Cholinesterase Inhibitor Amiridine into Multipotent Drugs for the Treatment of Alzheimer’s Disease” (biorxiv, 2024)
